This is an account of results in publication PMC7663272, “Discovery of Tricyclic Pyranochromenone as Novel Bruton’s Tyrosine Kinase Inhibitors with In Vivo Antirheumatic Activity” (International Journal of Molecular Sciences, 2020).

One data set has as its target T1, CYP1A2 (Homo sapiens, UniProt P05177).
T1 construct: purchased Promega V9770
T1 sequence (P05177 1-516): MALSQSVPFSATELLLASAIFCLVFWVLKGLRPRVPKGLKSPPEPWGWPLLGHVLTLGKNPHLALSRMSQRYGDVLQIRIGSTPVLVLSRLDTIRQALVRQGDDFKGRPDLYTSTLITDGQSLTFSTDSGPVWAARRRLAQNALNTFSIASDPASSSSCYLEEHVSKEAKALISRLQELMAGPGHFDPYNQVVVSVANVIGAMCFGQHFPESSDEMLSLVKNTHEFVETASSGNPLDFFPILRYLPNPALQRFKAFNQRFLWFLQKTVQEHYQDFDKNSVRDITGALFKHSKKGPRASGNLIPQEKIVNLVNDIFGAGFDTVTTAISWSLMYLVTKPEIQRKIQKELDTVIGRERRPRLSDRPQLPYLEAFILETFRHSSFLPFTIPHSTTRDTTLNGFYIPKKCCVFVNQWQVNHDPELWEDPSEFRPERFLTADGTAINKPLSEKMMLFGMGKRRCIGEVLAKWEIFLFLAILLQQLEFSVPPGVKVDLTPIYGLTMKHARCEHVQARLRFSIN
The data set can be described thus: P450-Glo CYP inhibition assay, CYP1A2. It is filed as in vitro ADME. On the procedure: (§1) The potential for CYP450 inhibition (CYP1A2, 2C9, 2C19, 2D6, and […]) was assessed using Promega P450-Glo^TM CYP450 assay systems. Luciferin-ME served as the substrate for CYP1A2, and the inhibitor α-naphthoflavone was used as a positive control. Luciferin-H was used as the substrate for CYP2C9, and the inhibitor sulfaphenazole was used as a positive control. Luciferin-H EGE was selected as the substrate for CYP2C19, whereas the inhibitor amitriptyline served as a positive control. Luciferin-ME EGE was used as the substrate for CYP2D6, whereas the inhibitor quinidine served as a positive control. Luciferin-BE was used as the substrate for CYP3A4, whereas the inhibitor ketoconazole was used as a positive control. The assays were performed using the excitation and emission wavelengths recommended by the manufacturer. Briefly, a CYP enzyme and a P450-Glo™ substrate were combined in potassium phosphate (0.1 M KPO4) buffer, with or without a test compound of interest, and […]. The reaction was initiated by adding two volumes of 2 times concentrated NADPH regeneration system. […] Luminescence was subsequently measured using a Tecan Infinite M1000 PRO microplate reader (Tecan Group Ltd., Switzerland). The percent inhibition was calculated relative to that of the positive control at a fixed concentration. […]

For the next data set, the target named is T2, BTK-C481S (Homo sapiens, UniProt Q06187, C481S).
T2 construct: purchased Reaction Biology Corporation
Briefly: HotSpot kinase enzymatic assay, mutant BTK. Type of data set: biochemical. Particulars: vs negative control (DMSO), mean of two separate experiments. An excerpt:
To confirm the role of the electrophilic warhead groups, the acryloyl group of compound 8 was replaced with methylacryloyl (11) and propionyl (12) groups, which are less electrophilic or lack an electrophilic feature. […] The significant difference in the inhibitory activity of compounds 8 and 12 could explain the critical role of the acryloyl moiety in potentiating the BTK inhibitory activity of compound 8. […] It was also confirmed by comparison of the inhibitory activity of the representative compounds (8–10) with electrophilic warheads against wild-type BTK (BTK-wt) and mutant BTK (BTK-C481S).
Kinase enzymatic assays for BTK, BMX, TXK, TEC, ITK, EGFR, ERBB2, ERBB4, and JAK3 were performed at Reaction Biology Corporation (www.reactionbiology.com, Malvern, PA, USA) using the HotSpot assay platform. Briefly, specific kinase/substrate pairs and the required cofactors were prepared in a reaction buffer comprising 20 mM HEPES (pH 7.5), 10 mM MgCl2, 1 mM EGTA, 0.02% Brij35, 0.02 mg/mL BSA, 0.1 mM Na3VO4, 2 mM DTT, and 1% DMSO. The compounds were added to the reaction mixture and allowed to incubate. Approximately 20 min later, a mixture of ATP (Sigma-Aldrich, St. Louis, MO, USA) and ^33P ATP (PerkinElmer, Waltham, MA, USA) was added to the reaction mixture at a final concentration of 10 μM. The reactions were performed at room temperature for 120 min; subsequently, the reactions were spotted onto P81 ion exchange filter papers (Whatman Inc., Maidstone, UK). Any unbound phosphate was removed by thoroughly washing the filter papers with 0.75% phosphoric acid. […] GraphPad Prism software was used to obtain the IC50 values and perform curve fitting.

A further data set deals with T3, CYP3A4 (Homo sapiens, UniProt P08684).
T3 construct: purchased Promega V9920
Briefly: P450-Glo CYP inhibition assay, CYP3A4. Type of data set: in vitro ADME. On the procedure: as §1

Data set [1] relates to TNF-α production in LPS-stimulated THP-1 cells. The data set can be described thus: LPS-induced TNF-α release in THP-1 cells (ELISA). Type of data set: cell-based, human. The source says: BTK plays a critical role in high-affinity IgE receptor (FcεRI) and B cell receptor (BCR) signaling, resulting in the release of proinflammatory cytokines. Therefore, BTK inhibitor treatment can reduce the production of both lymphoid and myeloid cytokines. […] We examined the cellular effects of compound 8 on the production of cytokines IL-6 and TNF-α in LPS-stimulated THP-1 cells. Following treatment with LPS alone or LPS and compound 8, the levels of cytokines secreted by THP-1 cells were assessed (Figure 5). LPS increased the output of proinflammatory cytokines.
THP-1 cells were obtained from the American Type Culture Collection (ATCC, Manassas, VA, USA). The cells were cultured in RPMI-1640 supplemented with 10% FBS, 1% P/S, and 0.05 mM 2-mercaptoethanol and maintained at 37 °C and 5% CO2 in a humidified incubator. Cytokine secretion (hIL-6 and TNF-α) in the culture supernatants of the THP-1 cells was measured using a human cytokine ELISA kit (Abcam). Differentiated THP-1 cells were treated with agents and LPS for 24 h, after which the cell culture media was centrifuged at 2000× g for 10 min to remove debris. Briefly, each sample (50 μL) or standard was mixed with the appropriate detection antibody and incubated for 1 h at room temperature on a plate shaker. […] Subsequently, 100 μL of stop solution was added to each well, and the optical density (OD) was measured at 450 nm. […]
For orientation: ELISA stands for enzyme-linked immunosorbent assay.

Where [2] appears, read: % inhibition of human CYP isozymes at 10 μM.

T3 sequence (P08684 whole entry): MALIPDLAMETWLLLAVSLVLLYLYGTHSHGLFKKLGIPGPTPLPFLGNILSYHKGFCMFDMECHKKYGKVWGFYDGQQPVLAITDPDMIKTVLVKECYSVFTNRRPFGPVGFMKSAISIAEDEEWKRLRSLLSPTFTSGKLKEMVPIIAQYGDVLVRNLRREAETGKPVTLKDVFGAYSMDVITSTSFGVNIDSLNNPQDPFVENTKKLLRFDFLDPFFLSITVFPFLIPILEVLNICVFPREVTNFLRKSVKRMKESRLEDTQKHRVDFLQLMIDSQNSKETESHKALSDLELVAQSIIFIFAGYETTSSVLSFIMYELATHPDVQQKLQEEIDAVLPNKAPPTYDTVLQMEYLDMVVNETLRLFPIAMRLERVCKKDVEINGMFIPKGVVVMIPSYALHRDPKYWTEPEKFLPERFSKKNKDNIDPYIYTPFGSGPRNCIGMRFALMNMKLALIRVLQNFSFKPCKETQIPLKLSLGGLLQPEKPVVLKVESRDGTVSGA
T2 sequence (Q06187 whole entry C481S): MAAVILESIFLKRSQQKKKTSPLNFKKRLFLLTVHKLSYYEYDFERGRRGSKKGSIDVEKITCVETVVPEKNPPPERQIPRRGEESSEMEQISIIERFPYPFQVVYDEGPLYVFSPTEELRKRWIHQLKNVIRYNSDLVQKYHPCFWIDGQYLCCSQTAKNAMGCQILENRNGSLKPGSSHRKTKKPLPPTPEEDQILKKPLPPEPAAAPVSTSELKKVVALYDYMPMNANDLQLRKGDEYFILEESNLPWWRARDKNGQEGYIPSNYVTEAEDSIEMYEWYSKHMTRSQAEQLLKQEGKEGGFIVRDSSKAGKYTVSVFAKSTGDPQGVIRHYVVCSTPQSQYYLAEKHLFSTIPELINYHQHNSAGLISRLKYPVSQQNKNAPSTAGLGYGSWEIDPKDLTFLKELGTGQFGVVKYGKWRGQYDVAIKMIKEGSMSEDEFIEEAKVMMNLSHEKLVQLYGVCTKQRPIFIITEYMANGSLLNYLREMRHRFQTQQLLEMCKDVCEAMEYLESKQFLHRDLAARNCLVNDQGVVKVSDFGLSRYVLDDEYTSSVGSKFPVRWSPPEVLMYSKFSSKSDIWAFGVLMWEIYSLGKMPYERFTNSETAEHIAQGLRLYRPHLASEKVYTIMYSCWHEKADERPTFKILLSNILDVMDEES

With `C=CC(=O)O[C@H]1Cc2cc3ccc(=O)oc3cc2OC1(C)C` [Compound 8, (7S)-(+)-Acrylic acid, 8,8-dimethyl-2-oxo-6,7-dihydro-2H,8H-pyrano [3,2-g]chromen-7-yl ester], the “CYP1A2 inhibition (in words)” value at CYP1A2 is on record as “rarely inhibited”. On CYP1A2 (setting [2]), the “CYP inhibition 1A2” value is listed as under 1%. Also, at BTK-C481S, the inhibition at 10 µM stood at 9.7%. Further, the “CYP3A4 inhibition (in words)” value on CYP3A4 is listed as “rarely inhibited”. Besides, the “CYP inhibition 3A4” value at CYP3A4 (setting [2]) is under 1%. The “production of TNF-α” value in data set [1] (LPS-stimulated differentiated THP-1 cells, 24 h, ELISA) is “significantly and dose-dependently reduced”. In addition, the “inhibitory activity on TNF-α production at 10 μM, compared with ibrutinib” value in data set [1] (compound at 10 μM, ibrutinib at 2 μM) is “comparable with that of ibrutinib at 2 μM”.

The term inhibition denotes the share of the control response that was lost under treatment.
